The numbers were not newly measured in US8178322B2, “Method for producing an L-amino acid or a nucleic acid” (Ajinomoto Co., Inc., priority 2007, dated 2012), which cites them from elsewhere.

Assay in data set [1]: not given
The source holds these as a separate data set.

Molecules are shown by their SMILES. Values after ≈ are worked out from the molar mass of the structure shown. Read-outs that look alike come from different tables or passages of the source.

Turning to `CC(C)C[C@H](N)C(=O)O` [L-leucine], the “Solubility (20° C.)” value was 23.8 mg/mL (≈ 181 mM) and the “Solubility (40° C.)” value was 26 mg/mL (≈ 198 mM).

As to `N[C@@H](CS)C(=O)O` [L-cysteine], the “Solubility (20° C.)” value was 160 mg/mL (≈ 1320 mM).

As for `CC(C)[C@H](N)C(=O)O` [L-valine], the “Solubility (20° C.)” value is 57.5 mg/mL (≈ 491 mM) and the “Solubility (40° C.)” value is 65 mg/mL (≈ 555 mM).

As to `Nc1ncnc2c1ncn2[C@@H]1O[C@H](CO)[C@@H](O)[C@H]1O` [adenosine], in data set [1], the “Solubility (20° C.)” value was 3.0 mg/mL (≈ 11.2 mM) and the “Solubility (40° C.)” value was 8.3 mg/mL (≈ 31.1 mM).

With `N[C@@H](Cc1c[nH]c2ccccc12)C(=O)O` [L-tryptophan], the “Solubility (20° C.)” value is 10.6 mg/mL (≈ 51.9 mM) and the “Solubility (40° C.)” value is 14 mg/mL (≈ 68.6 mM).

With `CC[C@H](C)[C@H](N)C(=O)O` [L-isoleucine], the “Solubility (40° C.)” value was 44 mg/mL (≈ 335 mM).

Regarding `NC(=O)CC[C@H](N)C(=O)O` [L-glutamine], the “Solubility (20° C.)” value was 37.3 mg/mL (≈ 255 mM) and the “Solubility (40° C.)” value is 66 mg/mL (≈ 452 mM).

Regarding `Nc1nc2c(ncn2[C@@H]2O[C@H](CO)[C@@H](O)[C@H]2O)c(=O)[nH]1` [guanosine], in data set [1], the “Solubility (20° C.)” value was 0.42 mg/mL (≈ 1.48 mM) and the “Solubility (40° C.)” value was 1.05 mg/mL (≈ 3.71 mM).

`Nc1nc2c(ncn2[C@@H]2O[C@H](COP(=O)(O)O)[C@@H](O)[C@H]2O)c(=O)[nH]1` [guanylic acid, guanosine-5′-monophosphate]: in data set [1], the “Solubility (20° C.)” value is 206 mg/mL (≈ 567 mM) and the “Solubility (40° C.)” value is 260 mg/mL (≈ 716 mM).

Regarding `N[C@@H](Cc1ccccc1)C(=O)O` [L-phenylalanine], the “Solubility (20° C.)” value was 27.4 mg/mL (≈ 166 mM) and the “Solubility (40° C.)” value was 38 mg/mL (≈ 230 mM).

Take `N[C@@H](CSSC[C@H](N)C(=O)O)C(=O)O` [L-cystine]: the “Solubility (20° C.)” value was 0.09 mg/mL (≈ 0.375 mM).

For the compound `OC[C@H]1O[C@@H](n2cnc3c(O)ncnc32)[C@H](O)[C@@H]1O` [inosine], in data set [1], the “Solubility (20° C.)” value was 44.4 mg/mL (≈ 166 mM) and the “Solubility (40° C.)” value was 83.4 mg/mL (≈ 311 mM).

`N[C@@H](Cc1c[nH]cn1)C(=O)O` [L-histidine]: the “Solubility (20° C.)” value was 38 mg/mL (≈ 245 mM) and the “Solubility (40° C.)” value is 58 mg/mL (≈ 374 mM).
